Data as given in ChEMBL document CHEMBL4840352 (J Med Chem, 2021).
Active and inactive are the calls of the source. The calls are words filed in the database; no cut-off is given here.

Assays:
[1] = test system: Receptor-type tyrosine-protein kinase FLT3 (Homo sapiens), P36888 [UNDEFINED MUTATION]; assay: Induction of FLT3-ITD degradation in human MV4-11 cells measured upto 18 hrs by Western blot analysis; format: cell-based; conditions: time hrs <=18
[2] = molecular target: CDK7/Cyclin H/MNAT1 (Homo sapiens) (UniProt P51946+P50613+P51948); assay: Inhibition of CDK7/cyclinH/MAT1 (unknown origin) at 1000 nM relative to control; format: protein-complex assay
[3] = molecular target: Aurora kinase A (Homo sapiens) (UniProt O14965); assay: Inhibition of AURORA-A (unknown origin) at 1000 nM relative to control
[4] = molecular target: Serine/threonine-protein kinase 4 (Homo sapiens) (UniProt Q13043); assay: Inhibition of MST1 (unknown origin) at 1000 nM relative to control
[5] = molecular target: Hepatocyte growth factor receptor (Homo sapiens) (UniProt P08581); assay: Inhibition of C-MET (unknown origin) at 1000 nM relative to control
[6] = molecular target: Serine/threonine-protein kinase TBK1 (Homo sapiens) (UniProt Q9UHD2); assay: Inhibition of TBK1 (unknown origin) at 1000 nM relative to control
[7] = molecular target: Mitogen-activated protein kinase kinase kinase 14 (Homo sapiens) (UniProt Q99558); assay: Inhibition of NIK (unknown origin) at 1000 nM relative to control
MV4-11 [8] = assay: Antiproliferative activity against human MV4-11 cells incubated for 48 hrs by CCK-8 assay; format: functional, cell-based; conditions: MV4-11, 48 h
[9] = molecular target: Receptor tyrosine-protein kinase erbB-2 (Homo sapiens) (UniProt P04626); assay: Inhibition of HER2 (unknown origin) at 1000 nM relative to control
[10] = molecular target: Casein kinase I isoform alpha-like (Homo sapiens) (UniProt Q8N752); assay: Inhibition of CK1A1 (unknown origin) at 1000 nM relative to control
[11] = molecular target: Tyrosine-protein kinase JAK3 (Homo sapiens) (UniProt P52333); assay: Inhibition of JAK3 (unknown origin) at 1000 nM relative to control
[12] = molecular target: Mitogen-activated protein kinase kinase kinase kinase 1 (Homo sapiens) (UniProt Q92918); assay: Inhibition of HPK1 (unknown origin) at 1000 nM relative to control
[13] = molecular target: Rho-associated protein kinase 1 (Homo sapiens) (UniProt Q13464); assay: Inhibition of ROCK1 (unknown origin) at 1000 nM relative to control
[14] = molecular target: ALK tyrosine kinase receptor (Homo sapiens) (UniProt Q9UM73); assay: Inhibition of ALK (unknown origin) at 1000 nM relative to control
[15] = molecular target: Discoidin domain-containing receptor 2 (Homo sapiens) (UniProt Q16832); assay: Inhibition of DDR2 (unknown origin) at 1000 nM relative to control
[16] = molecular target: Proto-oncogene tyrosine-protein kinase Src (Homo sapiens) (UniProt P12931); assay: Inhibition of SRC (unknown origin) at 1000 nM relative to control
[17] = molecular target: Mitogen-activated protein kinase 1 (Homo sapiens) (UniProt P28482); assay: Inhibition of ERK2 (unknown origin) at 1000 nM relative to control
MV4-11 [18] = assay: Induction of apoptosis in human MV4-11 cells at 10 nM after 48 hrs by Annexin-V/PI staining based flow cytometry; format: functional, cell-based
MOLM-13 [19] = assay: Antiproliferative activity against human MOLM-13 cells incubated for 48 hrs by CCK-8 assay; format: functional, cell-based; conditions: MOLM-13, 48 h
MOLM-13 [20] = assay: Induction of apoptosis in human MOLM-13 cells at 10 nM after 48 hrs by Annexin-V/PI staining based flow cytometry; format: functional, cell-based
[21] = molecular target: Serine/threonine-protein kinase MARK1 (Homo sapiens) (UniProt Q9P0L2); assay: Inhibition of MARK1 (unknown origin) at 1000 nM relative to control
[22] = molecular target: Mitogen-activated protein kinase 8 (Homo sapiens) (UniProt P45983); assay: Inhibition of JNK1 (unknown origin) at 1000 nM relative to control
[23] = molecular target: Mast/stem cell growth factor receptor Kit (Homo sapiens) (UniProt P10721); assay: Inhibition of KIT (unknown origin) at 1000 nM relative to control
[24] = molecular target: RAC-alpha serine/threonine-protein kinase (Homo sapiens) (UniProt P31749); assay: Inhibition of AKT1 (unknown origin) at 1000 nM relative to control
[25] = molecular target: Mitogen-activated protein kinase 1 (Homo sapiens) (UniProt P28482); assay: Inhibition of MAPK2 (unknown origin) at 1000 nM relative to control
[26] = molecular target: Maternal embryonic leucine zipper kinase (Homo sapiens) (UniProt Q14680); assay: Inhibition of MELK (unknown origin) at 1000 nM relative to control
[27] = molecular target: Serine/threonine-protein kinase Chk2 (Homo sapiens) (UniProt O96017); assay: Inhibition of CHK2 (unknown origin) at 1000 nM relative to control
[28] = molecular target: Glycogen synthase kinase-3 alpha (Homo sapiens) (UniProt P49840); assay: Inhibition of GSK3alpha (unknown origin) at 1000 nM relative to control
Chain of Glycogen synthase kinase-3 alpha (Homo sapiens) (P49840 2-483 limits assumed): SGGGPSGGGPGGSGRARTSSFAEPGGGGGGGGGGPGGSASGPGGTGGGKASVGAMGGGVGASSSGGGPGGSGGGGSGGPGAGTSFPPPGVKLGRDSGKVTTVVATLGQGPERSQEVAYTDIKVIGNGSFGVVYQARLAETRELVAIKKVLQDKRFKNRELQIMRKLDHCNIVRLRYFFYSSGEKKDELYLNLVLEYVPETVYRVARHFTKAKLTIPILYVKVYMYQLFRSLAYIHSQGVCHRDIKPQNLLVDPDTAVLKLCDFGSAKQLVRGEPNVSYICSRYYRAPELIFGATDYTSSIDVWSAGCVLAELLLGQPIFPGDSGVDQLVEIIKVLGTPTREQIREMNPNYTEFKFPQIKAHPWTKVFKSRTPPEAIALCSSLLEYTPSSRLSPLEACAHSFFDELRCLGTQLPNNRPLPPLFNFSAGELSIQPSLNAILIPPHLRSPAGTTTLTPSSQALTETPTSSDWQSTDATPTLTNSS

Chain of Mitogen-activated protein kinase 1 (Homo sapiens) (P28482 whole entry): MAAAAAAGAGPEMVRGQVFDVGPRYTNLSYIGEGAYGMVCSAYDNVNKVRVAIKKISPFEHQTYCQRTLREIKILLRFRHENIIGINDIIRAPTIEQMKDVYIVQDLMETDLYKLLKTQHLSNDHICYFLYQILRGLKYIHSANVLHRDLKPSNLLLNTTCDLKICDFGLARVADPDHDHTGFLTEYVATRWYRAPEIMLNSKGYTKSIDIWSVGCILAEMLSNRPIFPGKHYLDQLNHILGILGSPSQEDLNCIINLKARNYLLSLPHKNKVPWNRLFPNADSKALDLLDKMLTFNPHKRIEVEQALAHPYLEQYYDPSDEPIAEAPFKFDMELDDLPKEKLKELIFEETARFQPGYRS
Chain of Rho-associated protein kinase 1 (Homo sapiens) (Q13464 2-1354 limits assumed): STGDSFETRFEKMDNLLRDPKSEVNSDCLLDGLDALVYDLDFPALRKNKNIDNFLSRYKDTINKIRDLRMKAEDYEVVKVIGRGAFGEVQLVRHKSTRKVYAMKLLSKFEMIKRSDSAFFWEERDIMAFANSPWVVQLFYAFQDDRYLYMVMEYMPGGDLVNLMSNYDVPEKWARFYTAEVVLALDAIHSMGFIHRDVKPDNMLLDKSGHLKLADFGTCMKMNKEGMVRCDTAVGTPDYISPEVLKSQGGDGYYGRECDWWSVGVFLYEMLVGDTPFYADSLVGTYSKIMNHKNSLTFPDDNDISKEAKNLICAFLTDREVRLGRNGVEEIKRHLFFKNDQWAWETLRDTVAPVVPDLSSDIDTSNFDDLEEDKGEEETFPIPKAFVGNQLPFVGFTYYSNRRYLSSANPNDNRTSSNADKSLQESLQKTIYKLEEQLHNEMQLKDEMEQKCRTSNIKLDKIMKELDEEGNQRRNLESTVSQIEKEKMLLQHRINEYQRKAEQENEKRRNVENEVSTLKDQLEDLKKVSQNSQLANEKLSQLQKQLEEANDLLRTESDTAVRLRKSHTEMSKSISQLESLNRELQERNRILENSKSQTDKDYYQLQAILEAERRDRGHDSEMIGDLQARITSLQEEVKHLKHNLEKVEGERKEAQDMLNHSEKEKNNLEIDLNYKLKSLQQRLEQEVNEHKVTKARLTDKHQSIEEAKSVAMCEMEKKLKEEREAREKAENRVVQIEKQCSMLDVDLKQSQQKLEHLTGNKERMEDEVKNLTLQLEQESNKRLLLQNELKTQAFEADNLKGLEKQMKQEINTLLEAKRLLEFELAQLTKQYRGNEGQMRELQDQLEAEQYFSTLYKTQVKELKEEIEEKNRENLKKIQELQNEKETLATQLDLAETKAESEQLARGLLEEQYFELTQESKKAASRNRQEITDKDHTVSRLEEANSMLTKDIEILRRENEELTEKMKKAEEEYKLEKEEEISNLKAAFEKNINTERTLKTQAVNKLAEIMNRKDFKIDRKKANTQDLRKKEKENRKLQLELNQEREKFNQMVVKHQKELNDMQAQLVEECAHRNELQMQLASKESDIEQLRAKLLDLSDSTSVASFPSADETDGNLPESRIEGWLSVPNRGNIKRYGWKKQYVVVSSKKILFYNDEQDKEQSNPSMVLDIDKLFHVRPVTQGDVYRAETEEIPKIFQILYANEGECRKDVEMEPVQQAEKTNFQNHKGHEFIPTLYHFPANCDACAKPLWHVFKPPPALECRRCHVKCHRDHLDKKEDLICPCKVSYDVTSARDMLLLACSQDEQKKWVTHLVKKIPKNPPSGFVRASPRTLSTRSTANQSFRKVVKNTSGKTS
Chain of Tyrosine-protein kinase JAK3 (Homo sapiens) (P52333 whole entry): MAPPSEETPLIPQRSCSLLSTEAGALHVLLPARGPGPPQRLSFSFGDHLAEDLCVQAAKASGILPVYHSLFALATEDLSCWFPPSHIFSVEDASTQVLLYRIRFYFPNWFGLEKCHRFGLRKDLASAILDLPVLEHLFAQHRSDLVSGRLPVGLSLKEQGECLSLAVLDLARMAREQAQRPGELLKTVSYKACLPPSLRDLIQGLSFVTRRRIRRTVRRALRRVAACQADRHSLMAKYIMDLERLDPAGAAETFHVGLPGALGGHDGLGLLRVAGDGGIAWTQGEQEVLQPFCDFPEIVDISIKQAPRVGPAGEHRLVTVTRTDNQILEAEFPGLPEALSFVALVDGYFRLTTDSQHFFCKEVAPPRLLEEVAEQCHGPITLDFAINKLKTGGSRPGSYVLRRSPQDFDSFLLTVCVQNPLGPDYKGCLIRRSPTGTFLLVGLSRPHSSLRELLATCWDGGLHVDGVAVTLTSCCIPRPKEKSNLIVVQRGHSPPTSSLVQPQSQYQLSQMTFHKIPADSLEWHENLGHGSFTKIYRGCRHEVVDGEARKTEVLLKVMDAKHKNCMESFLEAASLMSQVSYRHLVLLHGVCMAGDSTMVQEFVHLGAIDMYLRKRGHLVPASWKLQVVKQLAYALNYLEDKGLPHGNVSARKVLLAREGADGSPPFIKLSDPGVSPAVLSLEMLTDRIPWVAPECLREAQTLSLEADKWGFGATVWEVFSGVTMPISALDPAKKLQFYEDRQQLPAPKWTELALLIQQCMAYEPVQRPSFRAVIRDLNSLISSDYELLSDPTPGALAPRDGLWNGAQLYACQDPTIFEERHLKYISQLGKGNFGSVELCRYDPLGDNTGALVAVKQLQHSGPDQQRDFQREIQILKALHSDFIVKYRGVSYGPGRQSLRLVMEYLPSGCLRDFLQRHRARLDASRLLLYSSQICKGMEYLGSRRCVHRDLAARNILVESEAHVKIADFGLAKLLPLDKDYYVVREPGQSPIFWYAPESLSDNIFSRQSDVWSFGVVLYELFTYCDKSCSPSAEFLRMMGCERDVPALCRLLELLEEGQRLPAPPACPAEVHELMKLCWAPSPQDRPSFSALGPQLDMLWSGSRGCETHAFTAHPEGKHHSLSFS
Chain of Mitogen-activated protein kinase kinase kinase kinase 1 (Homo sapiens) (Q92918 whole entry, looked up): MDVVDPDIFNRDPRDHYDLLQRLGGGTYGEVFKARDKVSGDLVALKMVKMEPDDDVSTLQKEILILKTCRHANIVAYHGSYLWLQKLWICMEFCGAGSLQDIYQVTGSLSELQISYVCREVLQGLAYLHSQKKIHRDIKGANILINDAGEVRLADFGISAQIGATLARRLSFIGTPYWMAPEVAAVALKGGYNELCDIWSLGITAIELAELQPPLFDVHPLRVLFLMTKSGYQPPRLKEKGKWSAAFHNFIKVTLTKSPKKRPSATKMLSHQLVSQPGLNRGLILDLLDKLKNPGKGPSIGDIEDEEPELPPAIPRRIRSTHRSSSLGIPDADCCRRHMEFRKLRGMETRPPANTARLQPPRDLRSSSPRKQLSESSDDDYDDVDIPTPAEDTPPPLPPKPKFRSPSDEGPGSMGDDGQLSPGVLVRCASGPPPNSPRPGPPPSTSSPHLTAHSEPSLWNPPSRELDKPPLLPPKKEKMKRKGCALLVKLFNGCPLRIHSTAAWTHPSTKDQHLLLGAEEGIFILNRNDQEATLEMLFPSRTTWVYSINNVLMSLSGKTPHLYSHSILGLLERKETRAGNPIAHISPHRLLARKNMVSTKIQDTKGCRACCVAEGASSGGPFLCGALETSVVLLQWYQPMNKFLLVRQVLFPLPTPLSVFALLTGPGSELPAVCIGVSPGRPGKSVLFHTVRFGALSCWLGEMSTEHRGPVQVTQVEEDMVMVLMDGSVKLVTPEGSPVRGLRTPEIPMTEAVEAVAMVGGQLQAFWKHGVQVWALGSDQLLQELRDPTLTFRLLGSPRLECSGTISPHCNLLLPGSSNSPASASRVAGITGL
Chain of RAC-alpha serine/threonine-protein kinase (Homo sapiens) (P31749 whole entry): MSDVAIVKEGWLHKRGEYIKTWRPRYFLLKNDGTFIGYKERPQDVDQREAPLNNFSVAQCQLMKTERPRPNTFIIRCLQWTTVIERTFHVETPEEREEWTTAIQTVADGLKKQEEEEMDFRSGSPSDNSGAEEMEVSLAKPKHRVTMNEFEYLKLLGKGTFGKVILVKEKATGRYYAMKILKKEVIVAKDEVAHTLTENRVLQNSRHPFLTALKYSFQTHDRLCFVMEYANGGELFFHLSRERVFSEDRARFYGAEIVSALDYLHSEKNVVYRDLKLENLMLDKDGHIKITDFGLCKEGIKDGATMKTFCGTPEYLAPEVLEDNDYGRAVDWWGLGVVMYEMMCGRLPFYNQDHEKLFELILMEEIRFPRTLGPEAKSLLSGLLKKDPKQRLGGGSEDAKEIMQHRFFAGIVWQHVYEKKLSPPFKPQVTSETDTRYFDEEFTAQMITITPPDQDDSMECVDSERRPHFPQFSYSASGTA
Chain of Mitogen-activated protein kinase 8 (Homo sapiens) (P45983 whole entry): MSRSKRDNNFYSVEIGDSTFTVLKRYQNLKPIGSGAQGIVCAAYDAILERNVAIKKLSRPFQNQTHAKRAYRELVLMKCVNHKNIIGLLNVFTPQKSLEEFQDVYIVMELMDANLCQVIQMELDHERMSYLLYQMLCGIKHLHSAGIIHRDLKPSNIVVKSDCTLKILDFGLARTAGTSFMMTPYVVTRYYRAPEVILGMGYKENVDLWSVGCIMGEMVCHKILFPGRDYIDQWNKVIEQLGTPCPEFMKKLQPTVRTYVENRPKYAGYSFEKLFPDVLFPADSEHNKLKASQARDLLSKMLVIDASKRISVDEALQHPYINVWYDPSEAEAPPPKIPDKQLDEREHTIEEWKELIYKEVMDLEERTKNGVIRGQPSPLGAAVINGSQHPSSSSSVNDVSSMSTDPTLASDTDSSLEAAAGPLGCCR

`C[C@@H]1C[C@@H]([C@H](O)CC2CC(=O)NC(=O)C2)C(=O)[C@@H](C)C1` was tested, and the Activity [1] was “inactive”.
Compound `CN1CCN(c2ccc3nc(-c4c(N)c5c(F)cccc5[nH]c4=O)[nH]c3c2)CC1` [DOVITINIB] has an inhibition [2] of 85%, an inhibition [3] of 38% and an inhibition [4] of 82%. It also gave an inhibition [5] of 14%, an inhibition [6] of 64% and an inhibition [7] of 2%. The IC50 (MV4-11 [8]) was 184 nM, the inhibition [9] was 37% and the inhibition [10] was 10%. For the same compound, the inhibition [11] was 54%, the inhibition [12] was 94% and the inhibition [13] was 23%. For the same compound, the inhibition [14] was 55%, the inhibition [15] was 38% and the inhibition [16] was 79%. For the same compound, the inhibition [17] was 31%, the Activity (MV4-11 [18]) was “inactive” and the IC50 (MOLM-13 [19]) was 795 nM. The Activity (MOLM-13 [20]) was “inactive”, the inhibition [21] was 57% and the inhibition [22] was 33%. For the same compound, the inhibition [23] was 98%, the inhibition [24] was 4% and the inhibition [25] was 54%. It also gave an inhibition [26] of 70%, an inhibition [27] of 25% and an inhibition [28] of 20%.
